Reference: a melting point compilation (Tetko et al.; mined from patent text by program, amines drawn as free bases though some values may be those of a salt)

SMILES	melting point [°C]
CCOC(=O)[C@H](Cc1cc(Cl)c(N)c(Cl)c1)NC(=O)C(F)(F)F	124 to 125
FC(F)Oc1ccc(C2=NNCC2c2ccccc2)cc1 (configuration not stated)	65 to 75
O=CCCOC(c1ccccc1)(c1ccccc1)c1ccccc1	97 to 98
O=c1[nH]c(-c2ccccc2)cn1CCO	203 to 205
CCCc1nc2c(N)nc(C)c(C)c2n1CC(C)(C)NS(C)(=O)=O	85 to 93
O=C(O)C(=O)c1cn(Cc2ccccc2)c2ccc(-c3ccc(OC(F)(F)F)cc3)cc12	169 to 171
O=C1CN(C(=O)c2ccco2)c2ccccc2N1	229 to 230
Cc1c(S(C)(=O)=O)c2cccc(Cl)c2n1CC1=NCCN1	206 to 208
CCN(CC)c1ccc([N+](=O)[O-])c2nnoc12	133 to 136
CCN1CCC/C1=C\c1nc(-c2ccc(F)cc2)c(-c2ccncc2)n1CCCc1ccccc1	127 to 128
Cc1ccc2noc(-c3ccccc3)c2c1	64 to 66
O=C(NN=C(c1ccc(Cl)cc1)c1ccc(OC(F)(F)C(Cl)Cl)cc1)OCC(Cl)(Cl)Cl	97 to 103
CCC(CC)c1ccc(Cl)c2nc(Nc3ccc(Br)cc3C)n(CCCCO)c12	151 to 152
O=C1CCC(Br)C(=O)N1 (configuration not stated)	76 to 83
O=CNc1nc(CSc2ccc([N+](=O)[O-])cc2)cs1	158 to 160
O=C(c1ccccc1)N1CCc2[nH]c3cccc(CCCOc4ccccc4)c3c2CC1	121 to 124
CCCCCCCCCCCCCc1cc[nH]c1	32.5 to 33.5
O=C1c2ccccc2C(=O)N1CCCCn1ccnc1	75 to 77
O=C(O)c1sc(C(c2ccc(Cl)cc2)c2c(Cl)cc(-n3ncc(=O)[nH]c3=O)cc2Cl)nc1-c1ccccc1 (configuration not stated)	206
CNC(=O)N(C)c1nc(CC(=O)Nc2nnc(C(C)(C)C)s2)cs1	175 to 177
Cc1cc(C)nc(S(=O)(=O)Nc2c(C)cccc2Cl)n1	215 to 219
Fc1ccc(-c2c[nH]c3ccccc23)cc1	98 to 100
O=C(NC1CCC(CCN2CCN(c3nccc4c3OCC4)CC2)CC1)c1ccc(N2CCS(=O)(=O)CC2)cc1 (configuration not stated)	260
FC(F)(F)c1cccc(NC2CCN(c3ccc(Cl)nn3)CC2)c1	118
CCCn1nc(C(C)C)c(C(N)=O)c1Cc1ccc(-c2ccccc2S(=O)(=O)NC(=O)c2ccccc2)cc1	197 to 200
C#Cc1ccnc(-c2ccc(Br)cc2[N+](=O)[O-])c1	166 to 171
COc1ccccc1-c1ccc(C(=O)N2Cc3ccc(C(=O)NCCc4ccc(O)cc4)n3Cc3ccccc32)cc1C	138 to 147

SMILES	melting point [°C]
CCCCc1c2c(cc3ccc(O)cc13)-c1ccc(O)cc1CO2	187 to 189
COCC[C@H]1CN(C2=Nc3ccccc3Nc3ccc(C(F)(F)F)cc32)CCN1	71 to 82
Clc1cccc2c1CNC2	48 to 50
CCCn1c(=O)nc(NNC(C)=O)c2[nH]c(C3CCCC3)nc21	> 270
Cn1cnc(COc2nn3c(-c4ccc(F)cc4)nnc3cc2-c2ccccc2)n1	233 to 235
COC(=O)C(CC(C)C)NC(=O)C(CC(C)C)NC(=O)OCc1ccccc1 (configuration not stated)	80 to 82
CCCCOc1ccc(-c2ccc3c(c2)C=C(C(=O)Nc2ccc(C(O)c4ccccn4)cc2)CCS3(=O)=O)cc1 (configuration not stated)	142 to 145
N#Cc1ccc(Cl)cc1NC(CCO)c1ccccc1 (configuration not stated)	88 to 90
O=C1Nc2ncccc2N2CCNCC12 (configuration not stated)	315 to 319
Nc1nc(N)c2c(ccc3c2ccn3-c2ccncc2)n1	328 to 330
CCCCCCCCCCCCCCCC(=O)OCC(O)COC(=O)CCCCCCCCCCCCCCC	71 to 73
O=C(O)c1ccc(NCCc2ccc(F)cc2)cc1	161 to 163
CCN(CC)Cc1cccn1N(C)c1ccnc2cc(C(F)(F)F)ccc12	64 to 66
O=S(=O)(c1cccs1)N(CCN1CCOCC1)c1cccc2cc(-c3nccs3)[nH]c12	192 to 193
CCCCc1nc(CCO)c[nH]1	92 to 93
CCOC(=O)[C@H](Cc1c[nH]c2ccccc12)NC(=O)OCc1ccccc1	80 to 83
O=C(O)C1Cc2ccccc2N1S(=O)(=O)c1ccc(-c2cccc(Cl)c2)cc1 (configuration not stated)	78
COc1cc2c(c(Cl)c1Cl)S(=O)(=O)C(c1ccccc1)=C2C	197 to 199
CC(C)CC(NC(=O)C(C)CS)C(=O)O (configuration not stated)	66 to 71
COc1ccc(C=C2NC(=O)NC2=O)cc1	242 to 244
COc1ccc(Oc2cc3nc(-c4ccc(Cl)cc4Cl)oc3cc2[N+](=O)[O-])cc1	144 to 146
O=S1(=O)N=C(Nc2ccccn2)Nc2ccc(Cl)cc21	> 310
COc1cccc(CNC(=O)[C@@H]2CCCN(c3cccc4c3C(=O)N(Cc3ccncc3)C4=O)C2)c1OC	199 to 200
CCCCc1oc2ccccc2c1/C=N/OCCCOc1ccc(CC(=O)O)cc1	181 to 182
O=C1OC(=O)C(c2ccccc2)=C1Cl	82 to 83
O=C1c2ccccc2CCn2cnnc21	187

Continued, values first:

melting point [°C]	SMILES
165	COC(=O)C1Cc2c(nc(C)n2-c2ccc(N(C)C)c(C)c2)CN1C(=O)C(c1ccccc1)c1ccccc1 (configuration not stated)
214 to 215	COC(=O)c1c(-c2ccccc2)nn2ccc3c(c12)C(CC#N)CC3 (configuration not stated)
60 to 67	CCCC(=O)C(=O)[C@H](CC1CCCCC1)NC(=O)[C@H](Cc1cn(S(=O)(=O)c2ccc(C)cc2)cn1)NC(=O)OC(C)(OC)OC
63 to 65	COC(=O)c1cc(-c2cc(C)[nH]c2C)nn1C
218	O=C(O)CNC(=O)Nc1ccc(Cl)cc1
155	CC1=C(OC(=O)C(C)(C)C)C2=C(O)N(I)CN(OC(=O)C(C)(C)C)C2=N1
209	CC(=O)c1cncc(OC2SCC(O)C(O)C2O)c1 (configuration not stated)
115 to 116	CCc1ccc(OC(C)(C)C(=O)O)cc1OCCCc1cn(-c2ccc(C(F)(F)F)cn2)nc1C(C)C
221 to 222	Cn1c(=O)nc(-c2ccccc2F)c2c3c(sc21)CCCC3
117 to 121	CC(C)Cc1ccc(CCOC(=O)c2cc(O)c3c(c2)C(=O)c2cccc(O)c2C3=O)cc1
107 to 110	COC(=O)CCC(=O)N(C)c1cccc(OCc2nc3ccccc3s2)c1
157 to 158	CNC(=O)N(O)CCNC(=O)c1cccc(Oc2ccc(Cl)cc2)c1
120 to 122	CC(C)(C)OC(=O)N[C@H]1C[C@@H](CON2C(=O)c3ccccc3C2=O)C1
77 to 79	COc1ccc(C(=O)c2ccccc2F)c(Cl)c1
153	CC(=O)OC1CSC(Oc2cnccc2Br)C(OC(C)=O)C1OC(C)=O (configuration not stated)
145 to 148	O=C(c1cccs1)c1cnn2c(-c3ccc(Cl)nc3)ccnc12
237 to 239	CSc1ccc2c(C(=O)C(F)(F)F)c[nH]c2c1
103 to 104	COc1ccc2c(c1)C(=NO)CCCO2
126 to 130	O=C(O)c1c[nH]c(CCc2ccccc2)n1
230	O=C(O)c1cnn(O)c1
128 to 130	COC(=O)c1sc([N+](=O)[O-])cc1N=NN(C)C
302	COc1ccc(C(=O)Nc2ncc(Cl)cc2Cl)c2c1oc1ccccc12
89 to 93	CC(C)(C)OC(=O)NCc1ccccc1-c1ccc(CO)cc1
77 to 82	O=C(NCCO)/C(=C/c1ccc(OC(F)(F)F)cc1)NC(=O)c1ccc(Oc2ccc(Cl)cc2)cc1
183 to 196	CC(C)(C(=O)O)C1(Br)OC2=CC=CC2=CC1c1ccccc1 (configuration not stated)

melting point [°C]	SMILES
121 to 122	CCOC(=O)C(C#N)CCCCCCc1ccc(Cl)cc1 (configuration not stated)
176 to 181	O=C(O)c1cccc(-c2ccc3c(c2)C(Oc2ccc(Cl)cc2Cl)CCC3)c1 (configuration not stated)
218	COc1ccc(-c2cncc(OC3SCC(O)C(O)C3O)c2)c(Cl)c1 (configuration not stated)
211 to 212	CCCCOC(=O)c1cc2c(cn1)[nH]c1ccccc12
99 to 101	CCNC(=O)c1cccc(NCC(=O)NCCc2ccc(OC)c(OC)c2)c1
108 to 109	CCOc1ccc(O)cc1C=O
122	COc1cc2c(cc1OC)C(=O)C(CC=O)C2 (racemic)
56 to 57	CCOC(=O)C(Cc1ccc(C(F)(F)F)cc1)C(=O)c1ccc(F)cc1 (configuration not stated)
138	CCCc1c(CSc2nnc(SCc3ccc(OC(C)C(=O)O)cc3)s2)ccc(C(C)=O)c1O (configuration not stated)
208 to 210	CN(C)C(=O)C1CCCc2c1c1ccccc1n2Cc1ccccc1 (configuration not stated)
89 to 90	COC(=O)Cc1ccc(C2=CC(=O)c3ccccc3C2=O)n1C
69 to 71	CC(=O)CCCC(=O)NC(CC(=O)C(=O)C(C)(Cc1c[nH]c2ccccc12)NC(=O)OC1C2CC3CC(C2)CC1C3)c1ccccc1 (configuration not stated)
> 250	NC1=NS(=O)(=O)Nc2cccc(OCC3(NC(=O)c4ccncc4)CCCC3)c21
249 to 250	Cc1cnc(NC(=O)C2=C(O)c3ccc4ccccc4c3S(=O)(=O)N2C)s1
199 to 200	O=C(O)c1cccc(-c2cccc(OCCc3ccc(Cl)cc3Cl)n2)c1
234 to 235	O=C(O)C1=Cc2cc(Cl)c(Oc3ccccn3)cc2OC1C(F)(F)F (configuration not stated)
43 to 45	CCCCCc1csc2cc(OC)ccc12
80 to 83	CCCc1c(OCCC(C)(C)C(=O)NCCCCc2cccnc2)ccc(C(C)=O)c1O
185 to 190	CCc1ccc2c(-c3cnc4[nH]cc(C(=O)N[C@H](C)C(=O)N5CC(C#N)C5)c4n3)nn(C)c2c1
209 to 210	NC(=S)NC[C@H]1CN(c2ccc(N3CCN(C(=O)CO)CC3)c(F)c2)C(=O)O1
205	COc1ccc(CCN2CCC(C(=O)O)(S(=O)(=O)c3ccc(OC)cc3)CC2)cc1
160 to 162	CCOC(=O)[C@@H]1C[C@H](C(=O)O)Nc2cc(Cl)cc(Cl)c21 (relative stereo)
255 to 256	O=C(Oc1cc[nH]c(=O)c1)c1ccc([N+](=O)[O-])cc1
174 to 175	Cc1ccc(C(=O)c2ccc(O)cc2)cc1O
